Source: patent publication EP4682146A1, “COMPOSITION INCLUDING NOVEL PYRIDOINDOLE DERIVATIVE COMPOUND AS ACTIVE INGREDIENT FOR PREVENTION OR TREATMENT OF NEURODEGENERATIVE DISEASES” (Neurotarge Co., Ltd., priority 2023, dated 2024)

What follows are compounds tested against T1, Tau-Synaptogyrin3 interaction (Homo sapiens, UniProt O43761+P10636) (assay: Cell-based split luciferase (NanoBit) protein complementary assay for Tau-Synaptogyrin3 interaction in stable cell line HEK293T-TK252-1E2). Settings: HEK293T-TK252-1E2 cells, 48 hrs compound treatment, L/F value (luciferase activity/fluorescent intensity) compared to DMSO control.
T1 construct: expressed in transfected cells
Method: Live cell luciferase assay: Live cell luciferase activity was measured using NanoGlo® Live Cell Assay System (Cat# N2012. Promega, WI, USA), according to manufacturer's instruction. All microplate-based measurement was performed with BioTek Synergy H1 (Agilent. CA, USA).
For producing HEK293T-TK252 stable cell line for screening, BglII-linearized pTK252 was transfected to HEK293T cells. After 24 hrs transfection, the transfected cells were cultured in the culture media containing 1 µg/ml puromycin (10 mM in DMSO, Cat# J61278/ Alfa Aesar. ThermoFisher Korea, Seoul, Korea) for 9 days. Regular media change was performed in every 3 days with fresh puromycin of indicating concentration during the whole selection period. The selected cells were trypsinized and diluted to 5 cells/ml and seeded to 4x 96 well cell culture plates (100 µl/well), and cultured with the cell culture media containing 1 µg/ml puromycin for 11 days. 18 wells that contained only GFP-positive cells were selected for expansion, and cultured with the cell culture media containing 0.1-0.2 µg/ml puromycin for 14 days. 10 clones were discarded during the expansion due to emerging of non-GFP cells, and 8 clones were validated. The selected clone (1E2) was cultured with the cell culture media containing 0.5 µg/ml puromycin for further experiments.
3 µmol of 1,728 compounds were purchased from Otava Chemicals MB (Vilniaus, Lithuania), dissolved into 300 µl DMSO (10 mM) and stored at -80°C. 4x10^4 HEK293T-TK252-1E2 cells were seeded with 100 µl of the cell culture media into 96 white well cell culture plates (Cat# 30196. SPL, Seoul, Korea), 48 hrs prior to compound treatment. For 10 µM compound treatment, 10 mM compound stock was diluted to 50 µM with the cell culture media, and 25 µl of the diluted compound was added to the designated wells of the 96 well plates. For dose-response experiments, the amount of compounds for dilution was adjusted to fit the volume indicated above. After 48 hrs compound treatment, the cells were washed once with OptiMEM and live cell luciferase activity, fluorescent intensity and fluorescence area scan was measured.
1,728 compounds were treated at 10 µM to HEK293T-TK252-1E2 cells and incubated for 48 hrs. […] Single wash step with culture media without FBS was included before measurement to discard dead cells and to remove FBS that affects luciferase assay. […] Fluorescent intensity was taken for normalization, which is expected to be proportion to the cell number at the measuring point. L/F value which is luciferase activity normalized with fluorescent intensity (L/F = Luciferase activity/ Fluorescent intensity) was calculated for all measurements and compared to L/F value of DMSO controls to calculated the size of inhibitory effect. […] Fluorescence area scan (FA) performed right after luciferase activity and fluorescent intensity measurement, to validate total remaining fluorescent cells in a well as a proxy to the cellular toxicity. FA value was in proportion to WST assay results (data not shown), and average CV of triplicates of all measurements was 0.04.
61 compounds were further tested for dose-response profile, based on inhibitory effect that was measured by L/F value (<60%) and FA-based cell viability (>90%) at 10 µM compared to DMSO control. 10 compounds were considered as hit compounds through three times of reproduction.

T1 sequence (P10636 1-441 isoform P10636-8): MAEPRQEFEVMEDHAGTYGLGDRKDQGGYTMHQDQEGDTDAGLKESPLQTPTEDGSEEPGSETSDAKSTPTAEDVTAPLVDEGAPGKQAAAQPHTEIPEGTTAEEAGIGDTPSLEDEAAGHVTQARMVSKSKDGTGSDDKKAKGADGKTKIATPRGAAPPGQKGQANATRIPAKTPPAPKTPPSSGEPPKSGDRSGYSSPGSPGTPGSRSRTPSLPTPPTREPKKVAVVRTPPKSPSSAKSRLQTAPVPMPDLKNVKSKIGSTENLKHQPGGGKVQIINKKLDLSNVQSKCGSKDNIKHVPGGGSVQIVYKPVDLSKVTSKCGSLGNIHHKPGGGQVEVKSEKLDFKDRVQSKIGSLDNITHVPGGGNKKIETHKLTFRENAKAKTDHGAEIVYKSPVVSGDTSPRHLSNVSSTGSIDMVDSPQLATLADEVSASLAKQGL
T1 sequence (O43761 whole entry): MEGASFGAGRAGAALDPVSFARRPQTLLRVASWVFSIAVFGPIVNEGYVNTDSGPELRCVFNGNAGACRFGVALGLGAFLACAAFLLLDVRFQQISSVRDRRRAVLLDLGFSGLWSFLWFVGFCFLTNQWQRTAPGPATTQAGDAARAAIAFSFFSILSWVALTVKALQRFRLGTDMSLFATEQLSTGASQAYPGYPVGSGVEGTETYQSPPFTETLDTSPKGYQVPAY

IC50 [µM] | Compound
< 3 | O=C(c1ccccc1)N1CCc2[nH]c3ccc(-c4ccc(Cl)cc4)cc3c2C1 [Formula 70, (8-(4-chlorophenyl)-1,3,4,5-tetrahydro-2H-pyrido[4,3-b]indol-2-yl)(phenyl)methanone]
< 3 | O=C(c1ccccc1)N1CCc2[nH]c3ccc(-c4ccc([N+](=O)[O-])cc4)cc3c2C1 [Formula 71, (8-(4-nitrophenyl)-1,3,4,5-tetrahydro-2H-pyrido[4,3-b]indol-2-yl)(phenyl)methanone]
< 3 | Nc1ccc(-c2ccc3[nH]c4c(c3c2)CN(C(=O)c2ccccc2)CC4)cc1 [Formula 72, (8-(4-Aminophenyl)-1,3,4,5-tetrahydro-2H-pyrido[4,3-b]indol-2-yl)(phenyl)methanone]
3 to 12 | CN(C)c1ccc(-c2ccc3[nH]c4c(c3c2)CN(C(=O)c2ccccc2)CC4)cc1 [Formula 73, (8-(4-(Dimethylamino)phenyl)-1,3,4,5-tetrahydro-2H-pyrido[4,3-b]indol-2-yl)(phenyl)methanone]

Second part, the compound before the results:

Compound | IC50 [µM]
Cc1ccc(-c2ccc3[nH]c4c(c3c2)CN(C(=S)Nc2ccccc2)CC4)cc1 [Formula 74, N-phenyl-8-(p-tolyl)-1,3,4,5-tetrahydro-2H-pyrido[4,3-b]indole-2-carbothioamide] | 3 to 12
Cc1ccc(-c2ccc3[nH]c4c(c3c2)CN(C(=O)Nc2ccccc2)CC4)cc1 [Formula 75, N-phenyl-8-(p-tolyl)-1,3,4,5-tetrahydro-2H-pyrido[4,3-b]indole-2-carboxamide] | 12 to 25
Cc1ccc(NC(=S)N2CCc3[nH]c4ccc(-c5ccc(C)cc5)cc4c3C2)cc1 [Formula 76, N,8-di-p-tolyl-1,3,4,5-tetrahydro-2H-pyrido[4,3-b]indole-2-carbothioamide] | 3 to 12
Cc1ccc(-c2ccc3[nH]c4c(c3c2)CN(C(=S)Nc2ccc(C#N)cc2)CC4)cc1 [Formula 77, N-(4-cyanophenyl)-8-(p-tolyl)-1,3,4,5-tetrahydro-2H-pyrido[4,3-b]indole-2-carbothioamide] | 12 to 25

Each compound was assayed on TtgA / PTtgR phloretin-inducible gene expression system (assay: Phloretin-regulated EGFP expression (pTK269: PCAG-TtgA and pTK274: PTtgR-EGFP) in HEK293T). Settings: HEK293T co-transfected with pTK269 and pTK274, 0 - 50 µM phloretin, 48 hours.
Format: cell-based, Human
Method: • FIG. 1 is a fluorescence microscopy image of the HEK293T cell line transfected with EGFP-fused Tau (pTK231: P(CMV)-Tau-EGFP) and Synaptogyrin 3 (pTK233:P(CMV)-EGFP-Synaptogyrin 3), showing the expression of both proteins 48 hours after transfection. • FIG. 2a is a schematic of the Protein Complementary Assay (PCA) process using the split luciferase method. Split luciferase consists of two fragments of the luciferase enzyme: a small bit (sBit) and a large bit (Lbit). […] Therefore, by fusing each fragment of the split luciferase to Tau and Synaptogyrin3, luciferase activity may be induced as a result of the interaction between Tau and Synaptogyrin3. […] The system includes a synthetic transcriptional activator, TtgA, and a synthetic promoter, PTtgR, prepared based on the flavonoid-regulated TtgR operon of the Pseudomonas putida DOT-T1E strain. In the absence of phloretin, TtgA binds to PTtgR and activates transcription (without phloretin), while in the presence of phloretin, TtgA dissociates from DNA and transcription is not activated (with phloretin). […] In the stable cell line HEK293T-TK252 expressing Lbit-Tau and sBit-Synaptogyrin3, expression of Tau protein to which split luciferase is not fused, can lead to a decrease in luciferase signal. […]

Compound | EGFP signal, difference between 0 and 50 µM treatment [fold]
O=C(CCc1ccc(O)cc1)c1c(O)cc(O)cc1O [phloretin] | 4

These compounds were tested on Tau-Synaptogyrin3 interaction (assay: Tau competition assay with phloretin-inducible Tau expression in HEK293T-TK252 clones, luciferase activity). Settings: clone 1E2 co-transfected with pTK269 and pTK285, 0, 10 and 50 µM phloretin, 48 hours.
Format: cell-based, Human
Method: • FIG. 1 is a fluorescence microscopy image of the HEK293T cell line transfected with EGFP-fused Tau (pTK231: P(CMV)-Tau-EGFP) and Synaptogyrin 3 (pTK233:P(CMV)-EGFP-Synaptogyrin 3), showing the expression of both proteins 48 hours after transfection. • FIG. 2a is a schematic of the Protein Complementary Assay (PCA) process using the split luciferase method. Split luciferase consists of two fragments of the luciferase enzyme: a small bit (sBit) and a large bit (Lbit). […] Therefore, by fusing each fragment of the split luciferase to Tau and Synaptogyrin3, luciferase activity may be induced as a result of the interaction between Tau and Synaptogyrin3. […] The system includes a synthetic transcriptional activator, TtgA, and a synthetic promoter, PTtgR, prepared based on the flavonoid-regulated TtgR operon of the Pseudomonas putida DOT-T1E strain. In the absence of phloretin, TtgA binds to PTtgR and activates transcription (without phloretin), while in the presence of phloretin, TtgA dissociates from DNA and transcription is not activated (with phloretin). […]
Live cell luciferase assay: Live cell luciferase activity was measured using NanoGlo® Live Cell Assay System (Cat# N2012. Promega, WI, USA), according to manufacturer's instruction. […]

Compound | luciferase activity, difference between 0 and 50 µM treatment [fold]
O=C(CCc1ccc(O)cc1)c1c(O)cc(O)cc1O [phloretin] | 2
